Measured values taken from PMC4505086, “Azobenzene-based inhibitors of human carbonic anhydrase II” (Beilstein Journal of Organic Chemistry, 2015).

Biological target: T1, human carbonic anhydrase II (hCAII) (Homo sapiens, UniProt P00918)
T1 construct: made in house
Assay: colorimetric endpoint measurement of hCAII-catalyzed pNPA hydrolysis
Type: biochemical
Settings: for Ki: calculated from IC50 by Cheng–Prusoff equation, Km = 1092.5 µM for pNPA, [S] = 5.0 mM; for IC50: wild-type hCAII 500 nM, pNPA 5 mM, 50 mM Tris pH 7.4, 20–30 min in the dark, absorbance at 400 nm
Source text: In order to determine the half-maximal inhibitory concentrations (IC50) and the inhibitory constants (Ki) towards hCAII for our library, we used a colorimetric endpoint measurement of the catalyzed pNPA hydrolysis (Figure 1a). Usually, a dansyl competition assay is employed for this purpose. However, as this assay is fluorescence-based and azobenzenes can quench fluorescence, this might cause a distortion in the obtained data. Furthermore, irradiation with UV light (i.e., λ = 280 nm for tryptophan excitation) can result in azobenzene-cis-isomerization, which could lead to different binding characteristics. Therefore, we aimed at the endpoint absorbance system described herein.
5. hCAII purification, crystallization and assay
5.1. Purification and crystallization
Wild-type human Carbonic Anhydrase II (hCAII) was expressed and purified as […]
previously reported. […]
5.2. Determination of half-maximal inhibitory concentration (IC50)
Approximately 1.0 mg of hCAII was dissolved in 100 µL of 50 mM Tris (pH 7.4) and diluted to a final concentration of 500 nM (concentration was determined in duplicates by absorbance spectroscopy) and mixed with the appropriate amount of blocker. The enzyme-blocker solution was then pipetted into a 96-well plate (white, clear flat bottom) containing pNPA for a final concentration of 5 mM. This was added simultaneously with a multi-well-pipette. After 20–30 min of incubation in the dark, the absorbance was measured using a plate reader at λ = 400 nm. Obtained data was background substracted and divided by data points of non-inhibited hCAII in order to obtain relative activity. The data points were fitted sigmoidal (eq. 1) or using the Hill equation (eq. 2) using IgorPro […]
All experiments were performed at least in triplicates. […]
y = base + [max / (1 + exp[(xhalf – x)/rate)]] (eq. 1) y = base + (max – base)/(1 + (xhalf / x)rate) (eq. 2)
5.3. Determination of inhibitory constants (Ki)
Inhibitory constants were determined using the Cheng–Prussow equation (eq. 3) with the obtained half-maximal inibitory constants (IC50) and with substrate concentration [S]
The Michaelis–Menten constant Km was obtained for this assay system independently and […]

SMILES | Ki [nM] | IC50 [nM]
NS(=O)(=O)c1ccc(/N=N/c2ccc(O)cc2)cc1 [1a] | 29.7 | 166
CCN(CC)c1ccc(/N=N/c2ccc(S(N)(=O)=O)cc2)cc1 [1b] | 25 | 140
NS(=O)(=O)c1ccc(/N=N/c2ccc(N3CCOCC3)cc2)cc1 [1c] | 55.4 | 309
[N-]=[N+]=Nc1ccc(/N=N/c2ccc(S(N)(=O)=O)cc2)cc1 [1e] | 46.1 | 257
Cc1ccc(/N=N/c2ccc(S(N)(=O)=O)cc2)cc1 [1f] | 65.1 | 363
NS(=O)(=O)c1ccc(/N=N/c2ccc([N+](=O)[O-])cc2)cc1 [1g] | 28.6 | 159
NS(=O)(=O)c1ccc(/N=N/c2ccccc2)cc1 [1h] | 44.8 | 250
CCOC(=O)c1ccc(/N=N/c2ccc(S(N)(=O)=O)cc2)cc1 [1i, (E)-Ethyl 4-((4-sulfamoylphenyl)diazenyl)benzoate] | 30.1 | 168
